Patent US9156839B2, “Fused bicyclic sulfamoyl derivatives and the use thereof as medicaments for the treatment of hepatitis B” (JANSSEN SCIENCES IRELAND UC, priority 2012, dated 2015)

Assays:
Type in all cases: cell-based
[1] = Cytotoxicity in HepG2 cells, Resazurin assay; conditions: human, 4 days incubation, Resazurin viability
Experimental: Cytotoxicity of the compounds was also tested using HepG2 cells, incubated for 4 days in the presence of compounds. The viability of the cells was assessed using a Resazurin assay.

[2] = test system: HBV; test: Anti-HBV activity in HepG2.117 inducible HBV producing cell line (Tet-off), intracellular HBV DNA by realtime PCR; conditions: Hepatitis B virus, read-out: HepG2 117 EC50
[3] = test system: HBV; test: Anti-HBV activity in HepG2.2.15 stable transfected cell line, HBV DNA from secreted virions by realtime PCR; conditions: Hepatitis B virus, read-out: HBV - HepG2.15
[4] = 72 h, HepG2.117 cells, 3 days of treatment, intracellular HBV DNA
[5] = 144 h, HepG2.2.15 cells, 6 days of treatment, HBV DNA from secreted virions

| Compound | CC50 at 4 days [1] [µM] | EC50 [2, 4] [µM] | EC50 [3, 5] [µM] | EC50 ([2]; HepG2.117, 72 h) [µM] | EC50 ([3]; HepG2.2.15, 144 h) [µM] |
| --- | --- | --- | --- | --- | --- |
| O=S(=O)(NC1CCCCC1)c1ccc2[nH]nc(Nc3ccc(F)cc3)c2c1 [Compound 3] | > 25 | 4.6 | 1 |  |  |
| O=S(=O)(NC1CCCCC1)c1ccc2onc(Nc3ccc(F)cc3)c2c1 [Compound 4] | > 25 |  |  | 1.2 | 0.74 |
| O=S(=O)(NC1CCCC1)c1ccc2[nH]nc(Nc3ccc(F)cc3)c2c1 [Compound 5] | > 25 | 1.8 | 1 |  |  |
| Cn1nc(Nc2ccc(F)cc2)c2cc(S(=O)(=O)NC3CCCC3)ccc21 [Compound 6] | > 25 | 0.82 | 0.49 |  |  |
| CC(C)n1nc(Nc2ccc(F)cc2)c2cc(S(=O)(=O)NC3CCCC3)ccc21 [Compound 7] | > 25 | > 25 | > 50 |  |  |
| O=S(=O)(NC1CCCC1)c1ccc2c(c1)c(Nc1ccc(F)cc1)nn2C1CC1 [Compound 8] | > 25 | 0.62 | 0.21 |  |  |
| CC(=O)n1nc(Nc2ccc(F)cc2)c2cc(S(=O)(=O)NC3CCCC3)ccc21 [Compound 9] | > 25 | 18.4 | > 50 |  |  |
| COC(=O)n1nc(Nc2ccc(F)cc2)c2cc(S(=O)(=O)NC3CCCC3)ccc21 [Compound 10] | > 25 | > 25 | 46.5 |  |  |
| O=S(=O)(N[C@H]1CCOC1)c1ccc2[nH]nc(Nc3ccc(F)c(F)c3)c2c1 [Compound 11] | > 25 | 12.4 | 3.3 |  |  |
| Cc1cc(Nc2n[nH]c3ccc(S(=O)(=O)N[C@H]4CCOC4)cc23)ccc1F [Compound 12] | > 25 | > 25 | 5.2 |  |  |
| CC(C)NS(=O)(=O)c1ccc2[nH]nc(Nc3ccc(F)c(F)c3)c2c1 [Compound 13] | > 25 | > 25 | 8.9 |  |  |
| Cc1cc(Nc2nn(C)c3ccc(S(=O)(=O)N[C@H]4CCOC4)cc23)ccc1F [Compound 14] | > 25 | 8.5 | 1.1 |  |  |
| CC(C)NS(=O)(=O)c1ccc2c(c1)c(Nc1ccc(F)c(C(F)F)c1)nn2C [Compound 15] | > 25 | 2.8 | 0.44 |  |  |
| Cn1nc(Nc2ccc(F)c(C(F)F)c2)c2cc(S(=O)(=O)N[C@H]3CCOC3)ccc21 [Compound 16] | > 25 | 4.5 | 1.3 |  |  |
| CC(C)NS(=O)(=O)c1ccc2cnc(Nc3ccc(F)c(C(F)F)c3)n2c1 [Compound 17] | > 25 | 14.2 | 0.56 |  |  |
| Cc1cc(Nc2ncc3ccc(S(=O)(=O)N[C@H]4CCOC4)cn23)ccc1F [Compound 18] | > 25 | > 25 | 1.7 |  |  |
| Cc1cc(Nc2nnc3ccc(S(=O)(=O)NC(C)C)cn23)ccc1F [Compound 19] | > 25 | 3.4 | 1.2 |  |  |
